# In PubChem BioAssay (NCI):
#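 1) Cells in 96-well plates. 2) Compound, 48 h, 5 concentrations. 3) Linear interpolation between surrounding doses. 4) Unreached endpoint = highest concentration. TGI: concentration producing complete growth inhibition.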
# What was measured:
# Experiment in all cases: NCI-60 cell line screen, 48 h
# 786-0 renal = test system: 786-0 renal
# A549 NSCLC = test system: A549 NSCLC
# ACHN renal = test system: ACHN renal
# BT-549 breast = test system: BT-549 breast
# CAKI-1 renal = test system: CAKI-1 renal
# CCRF-CEM leukemia = test system: CCRF-CEM leukemia
# COLO 205 colon = test system: COLO 205 colon
# DU-145 prostate = test system: DU-145 prostate
# EKVX NSCLC = test system: EKVX NSCLC
# HCT-116 colon = test system: HCT-116 colon
# HCT-15 colon = test system: HCT-15 colon
# HL-60(TB) leukemia = test system: HL-60(TB) leukemia
# HOP-62 NSCLC = test system: HOP-62 NSCLC
# HS 578T breast = test system: HS 578T breast
# HT29 colon = test system: HT29 colon
# IGROV1 ovarian = test system: IGROV1 ovarian
# K-562 leukemia = test system: K-562 leukemia
# KM12 colon = test system: KM12 colon
# LOX IMVI melanoma = test system: LOX IMVI melanoma
# M14 melanoma = test system: M14 melanoma
# MALME-3M melanoma = test system: MALME-3M melanoma
# MCF7 breast = test system: MCF7 breast
# MDA-MB-231 breast = test system: MDA-MB-231 breast
# MDA-MB-435 = test system: MDA-MB-435
# MDA-N = test system: MDA-N
# MOLT-4 leukemia = test system: MOLT-4 leukemia
# NCI-H23 lung = test system: NCI-H23 lung
# NCI-H460 lung = test system: NCI-H460 lung
# NCI-H522 lung = test system: NCI-H522 lung
# NCI/ADR-RES ovarian = test system: NCI/ADR-RES ovarian
# OVCAR-3 ovarian = test system: OVCAR-3 ovarian
# OVCAR-4 ovarian = test system: OVCAR-4 ovarian
# OVCAR-5 ovarian = test system: OVCAR-5 ovarian
# OVCAR-8 ovarian = test system: OVCAR-8 ovarian
# PC-3 prostate = test system: PC-3 prostate
# RPMI-8226 leukemia = test system: RPMI-8226 leukemia
# RXF 393 renal = test system: RXF 393 renal
# SF-268 CNS = test system: SF-268 CNS
# SF-295 CNS = test system: SF-295 CNS
# SK-MEL-28 melanoma = test system: SK-MEL-28 melanoma
# SK-MEL-5 melanoma = test system: SK-MEL-5 melanoma
# SK-OV-3 ovarian = test system: SK-OV-3 ovarian
# SN12C renal = test system: SN12C renal
# SNB-19 CNS = test system: SNB-19 CNS
# SR leukemia = test system: SR leukemia
# T-47D breast = test system: T-47D breast
# TK-10 renal = test system: TK-10 renal
# U251 CNS = test system: U251 CNS
# UACC-257 melanoma = test system: UACC-257 melanoma
# UACC-62 melanoma = test system: UACC-62 melanoma
# UO-31 renal = test system: UO-31 renal
# HCC-2998 colon = test system: HCC-2998 colon
# NCI-H226 lung = test system: NCI-H226 lung
# SK-MEL-2 melanoma = test system: SK-MEL-2 melanoma
# SNB-75 CNS = test system: SNB-75 CNS
# SW-620 colon = test system: SW-620 colon
# A498 renal = test system: A498 renal
# HOP-92 NSCLC = test system: HOP-92 NSCLC
# SF-539 CNS = test system: SF-539 CNS
structure (smiles),measurement,setting,value
Cc1cc(O)c(C(c2cccnc2)c2c(O)cc(C)[nH]c2=O)c(=O)[nH]1,TGI,786-0 renal,> 100 µM
same,TGI,A549 NSCLC,> 100 µM
same,TGI,ACHN renal,> 100 µM
same,TGI,BT-549 breast,> 100 µM
same,TGI,CAKI-1 renal,> 100 µM
same,TGI,CCRF-CEM leukemia,> 100 µM
same,TGI,COLO 205 colon,> 100 µM
same,TGI,DU-145 prostate,> 100 µM
same,TGI,EKVX NSCLC,> 100 µM
same,TGI,HCT-116 colon,> 100 µM
same,TGI,HCT-15 colon,> 100 µM
same,TGI,HL-60(TB) leukemia,> 100 µM
same,TGI,HOP-62 NSCLC,> 100 µM
same,TGI,HS 578T breast,> 100 µM
same,TGI,HT29 colon,> 100 µM
same,TGI,IGROV1 ovarian,> 100 µM
same,TGI,K-562 leukemia,> 100 µM
same,TGI,KM12 colon,> 100 µM
same,TGI,LOX IMVI melanoma,> 100 µM
same,TGI,M14 melanoma,> 100 µM
same,TGI,MALME-3M melanoma,> 100 µM
same,TGI,MCF7 breast,> 100 µM
same,TGI,MDA-MB-231 breast,> 100 µM
same,TGI,MDA-MB-435,> 100 µM
same,TGI,MDA-N,> 100 µM
same,TGI,MOLT-4 leukemia,> 100 µM
same,TGI,NCI-H23 lung,> 100 µM
same,TGI,NCI-H460 lung,> 100 µM
same,TGI,NCI-H522 lung,> 100 µM
same,TGI,NCI/ADR-RES ovarian,> 100 µM
same,TGI,OVCAR-3 ovarian,> 100 µM
same,TGI,OVCAR-4 ovarian,> 100 µM
same,TGI,OVCAR-5 ovarian,> 100 µM
same,TGI,OVCAR-8 ovarian,> 100 µM
same,TGI,PC-3 prostate,> 100 µM
same,TGI,RPMI-8226 leukemia,> 100 µM
same,TGI,RXF 393 renal,> 100 µM
same,TGI,SF-268 CNS,> 100 µM
same,TGI,SF-295 CNS,> 100 µM
same,TGI,SK-MEL-28 melanoma,> 100 µM
same,TGI,SK-MEL-5 melanoma,> 100 µM
same,TGI,SK-OV-3 ovarian,> 100 µM
same,TGI,SN12C renal,> 100 µM
same,TGI,SNB-19 CNS,> 100 µM
same,TGI,SR leukemia,> 100 µM
same,TGI,T-47D breast,> 100 µM
same,TGI,TK-10 renal,> 100 µM
same,TGI,U251 CNS,> 100 µM
same,TGI,UACC-257 melanoma,> 100 µM
same,TGI,UACC-62 melanoma,> 100 µM
same,TGI,UO-31 renal,> 100 µM
CCOC(=O)n1[nH]c(=O)n(-c2ccccc2)c1=O,TGI,786-0 renal,> 100 µM
same,TGI,A549 NSCLC,> 100 µM
same,TGI,ACHN renal,> 100 µM
same,TGI,BT-549 breast,> 100 µM
same,TGI,CAKI-1 renal,> 100 µM
same,TGI,CCRF-CEM leukemia,> 100 µM
same,TGI,COLO 205 colon,> 100 µM
same,TGI,DU-145 prostate,> 100 µM
same,TGI,EKVX NSCLC,> 100 µM
same,TGI,HCC-2998 colon,> 100 µM
same,TGI,HCT-116 colon,> 100 µM
same,TGI,HCT-15 colon,> 100 µM
same,TGI,HL-60(TB) leukemia,> 100 µM
same,TGI,HOP-62 NSCLC,> 100 µM
same,TGI,HS 578T breast,> 100 µM
same,TGI,HT29 colon,> 100 µM
same,TGI,IGROV1 ovarian,> 100 µM
same,TGI,K-562 leukemia,> 100 µM
same,TGI,KM12 colon,> 100 µM
same,TGI,LOX IMVI melanoma,> 100 µM
same,TGI,M14 melanoma,> 100 µM
same,TGI,MALME-3M melanoma,> 100 µM
same,TGI,MCF7 breast,> 100 µM
same,TGI,MDA-MB-231 breast,> 100 µM
same,TGI,MDA-MB-435,> 100 µM
same,TGI,MDA-N,> 100 µM
same,TGI,MOLT-4 leukemia,> 100 µM
same,TGI,NCI-H226 lung,> 100 µM
same,TGI,NCI-H23 lung,> 100 µM
same,TGI,NCI-H460 lung,> 100 µM
same,TGI,NCI/ADR-RES ovarian,> 100 µM
same,TGI,OVCAR-3 ovarian,> 100 µM
same,TGI,OVCAR-4 ovarian,> 100 µM
same,TGI,OVCAR-5 ovarian,> 100 µM
same,TGI,OVCAR-8 ovarian,> 100 µM
same,TGI,PC-3 prostate,> 100 µM
same,TGI,RPMI-8226 leukemia,> 100 µM
same,TGI,RXF 393 renal,> 100 µM
same,TGI,SF-268 CNS,> 100 µM
same,TGI,SF-295 CNS,> 100 µM
same,TGI,SK-MEL-2 melanoma,> 100 µM
same,TGI,SK-MEL-28 melanoma,> 100 µM
same,TGI,SK-MEL-5 melanoma,> 100 µM
same,TGI,SK-OV-3 ovarian,> 100 µM
same,TGI,SN12C renal,> 100 µM
same,TGI,SNB-19 CNS,> 100 µM
same,TGI,SNB-75 CNS,> 100 µM
same,TGI,SR leukemia,> 100 µM
same,TGI,SW-620 colon,> 100 µM
same,TGI,T-47D breast,> 100 µM
same,TGI,TK-10 renal,> 100 µM
same,TGI,U251 CNS,> 100 µM
same,TGI,UACC-257 melanoma,> 100 µM
same,TGI,UACC-62 melanoma,> 100 µM
same,TGI,UO-31 renal,> 100 µM
COc1ccc(C(=O)N2CCc3c([nH]c4ccccc34)C2C(=O)O)o1 (configuration not stated),TGI,786-0 renal,> 10 µM
same,TGI,A498 renal,> 10 µM
same,TGI,A549 NSCLC,> 10 µM
same,TGI,ACHN renal,> 10 µM
same,TGI,BT-549 breast,> 10 µM
same,TGI,CAKI-1 renal,> 10 µM
same,TGI,CCRF-CEM leukemia,> 10 µM
same,TGI,COLO 205 colon,> 10 µM
same,TGI,DU-145 prostate,> 10 µM
same,TGI,EKVX NSCLC,> 10 µM
same,TGI,HCC-2998 colon,> 10 µM
same,TGI,HCT-116 colon,> 10 µM
same,TGI,HCT-15 colon,> 10 µM
same,TGI,HL-60(TB) leukemia,> 10 µM
same,TGI,HOP-62 NSCLC,> 10 µM
same,TGI,HOP-92 NSCLC,> 10 µM
same,TGI,HS 578T breast,> 10 µM
same,TGI,HT29 colon,> 10 µM
same,TGI,IGROV1 ovarian,> 10 µM
same,TGI,K-562 leukemia,> 10 µM
same,TGI,KM12 colon,> 10 µM
same,TGI,M14 melanoma,> 10 µM
same,TGI,MALME-3M melanoma,> 10 µM
same,TGI,MCF7 breast,> 10 µM
same,TGI,MDA-MB-231 breast,> 10 µM
same,TGI,MDA-MB-435,> 10 µM
same,TGI,MDA-N,> 10 µM
same,TGI,MOLT-4 leukemia,> 10 µM
same,TGI,NCI/ADR-RES ovarian,> 10 µM
same,TGI,OVCAR-3 ovarian,> 10 µM
same,TGI,OVCAR-4 ovarian,> 10 µM
same,TGI,OVCAR-8 ovarian,> 10 µM
same,TGI,PC-3 prostate,> 10 µM
same,TGI,RPMI-8226 leukemia,> 10 µM
same,TGI,SF-268 CNS,> 10 µM
same,TGI,SF-295 CNS,> 10 µM
same,TGI,SF-539 CNS,> 10 µM
same,TGI,SK-MEL-28 melanoma,> 10 µM
same,TGI,SK-MEL-5 melanoma,> 10 µM
same,TGI,SK-OV-3 ovarian,> 10 µM
same,TGI,SN12C renal,> 10 µM
same,TGI,SNB-19 CNS,> 10 µM
same,TGI,SNB-75 CNS,> 10 µM
same,TGI,SR leukemia,> 10 µM
same,TGI,SW-620 colon,> 10 µM
same,TGI,T-47D breast,> 10 µM
same,TGI,TK-10 renal,> 10 µM
same,TGI,U251 CNS,> 10 µM
same,TGI,UACC-257 melanoma,> 10 µM
same,TGI,UACC-62 melanoma,> 10 µM
Oc1c2cc(Br)cc1CCc1cc(Br)cc(c1O)CC2,TGI,786-0 renal,> 100 µM
same,TGI,A498 renal,73.8 µM
same,TGI,A549 NSCLC,> 100 µM
same,TGI,ACHN renal,> 100 µM
same,TGI,BT-549 breast,73.1 µM
same,TGI,CAKI-1 renal,> 100 µM
same,TGI,CCRF-CEM leukemia,97.5 µM
same,TGI,COLO 205 colon,27.7 µM
same,TGI,DU-145 prostate,> 100 µM
same,TGI,HCC-2998 colon,32.9 µM
same,TGI,HCT-116 colon,30.1 µM
same,TGI,HCT-15 colon,80.7 µM
same,TGI,HL-60(TB) leukemia,51.6 µM
same,TGI,HOP-62 NSCLC,65.7 µM
same,TGI,HS 578T breast,73.4 µM
same,TGI,HT29 colon,35.9 µM
same,TGI,IGROV1 ovarian,> 100 µM
same,TGI,K-562 leukemia,> 100 µM
same,TGI,KM12 colon,37.5 µM
same,TGI,LOX IMVI melanoma,31.3 µM
same,TGI,M14 melanoma,36.7 µM
same,TGI,MALME-3M melanoma,> 100 µM
same,TGI,MCF7 breast,46.2 µM
same,TGI,MDA-MB-231 breast,41.4 µM
same,TGI,MDA-MB-435,> 100 µM
same,TGI,MDA-N,> 100 µM
same,TGI,MOLT-4 leukemia,> 100 µM
same,TGI,NCI-H226 lung,59.5 µM
same,TGI,NCI-H23 lung,> 100 µM
same,TGI,NCI-H460 lung,39.4 µM
same,TGI,NCI-H522 lung,45.8 µM
same,TGI,NCI/ADR-RES ovarian,57.2 µM
same,TGI,OVCAR-3 ovarian,48.8 µM
same,TGI,OVCAR-5 ovarian,65 µM
same,TGI,OVCAR-8 ovarian,> 100 µM
same,TGI,PC-3 prostate,55.8 µM
same,TGI,RPMI-8226 leukemia,> 100 µM
same,TGI,RXF 393 renal,70.4 µM
same,TGI,SF-268 CNS,> 100 µM
same,TGI,SF-295 CNS,52.5 µM
same,TGI,SF-539 CNS,58.6 µM
same,TGI,SK-MEL-2 melanoma,52.9 µM
same,TGI,SK-MEL-28 melanoma,> 100 µM
same,TGI,SK-MEL-5 melanoma,33.3 µM
same,TGI,SK-OV-3 ovarian,76 µM
same,TGI,SN12C renal,> 100 µM
same,TGI,SNB-19 CNS,> 100 µM
same,TGI,SNB-75 CNS,88.3 µM
same,TGI,SR leukemia,> 100 µM
same,TGI,SW-620 colon,70.5 µM
same,TGI,T-47D breast,> 100 µM
same,TGI,TK-10 renal,89.9 µM
same,TGI,U251 CNS,65.8 µM
same,TGI,UACC-257 melanoma,55.6 µM
same,TGI,UACC-62 melanoma,46 µM
same,TGI,UO-31 renal,66.6 µM
